Source: US6914045B2, “Glycopeptide antibiotics” (Wyeth Holdings Corporation, priority 2001, dated 2005)

Legend:
Test in all cases: in vitro antibacterial evaluation, MIC by broth dilution
Format in all cases: cell-based
Escherichia coli = details: 18 hours at 35° C.
Streptococcus sp. = details: broth dilution, 18 hours at 35° C.
In short: (§1)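 Broth dilution per NCCLS standard M7-A2 in Muller-Hinton II […], with an inoculum of 5×10^5 CFU/mL and antibiotic spanning 64-0.06 μg/mL. The MIC is the lowest concentration that inhibits growth of the organism.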

Enterococcus sp. = details: broth dilution, 18 hours at 35° C.
In short: as §1

Staphylococcus sp. = details: broth dilution, 18 hours at 35° C.
In short: as §1

CC(c1ccccc1)C1NC(=O)CNC(=O)C(CO)NC(=O)C(C(O)C2CNC(=N)N2C2OC(CO)C(O)C(O)C2O)NC(=O)C(C(O)C2CNC(=N)N2)NC(=O)C(Cc2ccc(OC3OC(CO)C(OC4OC(COCC=Cc5ccccc5)C(O)C(O)C4O)C(O)C3O)cc2)NC1=O (stereo not shown) [Example 242]
8 µg/mL: MIC Enterococcus faecium (GC 4557) (Enterococcus sp.) | MIC Enterococcus faecium (GC 4557) (Enterococcus sp.; strain GC 4557) | MIC Coagulase Negative Staphylococcus (GC 4547) (Staphylococcus sp.) | MIC Staphylococcus aureus (ATCC 29213) (Staphylococcus sp.) | MIC Staphylococcus aureus (GC 1131) (Staphylococcus sp.) | MIC Staphylococcus aureus (GC 3051) (Staphylococcus sp.) | MIC Staphylococcus aureus (GC 3053) (Staphylococcus sp.) | MIC Staphylococcus aureus (GC 4544) (Staphylococcus sp.) | MIC Staphylococcus aureus-SMITH (GC 4543) (Staphylococcus sp.) | MIC Staphylococcus aureus (ATCC 29213) (Staphylococcus sp.; strain ATCC 29213) | MIC Staphylococcus aureus (GC 1131) (Staphylococcus sp.; strain GC 1131) | MIC Staphylococcus aureus (GC 3051) (Staphylococcus sp.; strain GC 3051) | MIC Staphylococcus aureus (GC 3053) (Staphylococcus sp.; strain GC 3053) | MIC Staphylococcus aureus-SMITH (GC 4543) (Staphylococcus sp.; strain GC 4543) | MIC Staphylococcus aureus (GC 4544) (Staphylococcus sp.; strain GC 4544) | MIC Coagulase Negative Staphylococcus (GC 4547) (Staphylococcus sp.; strain GC 4547)
>64 µg/mL: MIC Escherichia coli (ATCC 25922) (Escherichia coli) | MIC Escherichia coli (GC 4559) (Escherichia coli)
1 µg/mL: MIC Streptococcus pneumoniae (ATCC 6301) (Streptococcus sp.) | MIC Streptococcus pneumoniae (ATCC 6301) (Streptococcus sp.; inoculum 5×10^5 CFU/mL, strain ATCC 6301)
4 µg/mL: MIC Coagulase Negative Staphylococcus (GC 4548) (Staphylococcus sp.) | MIC Coagulase Negative Staphylococcus (GC 4549) (Staphylococcus sp.) | MIC Staphylococcus aureus (GC 4541) (Staphylococcus sp.) | MIC Staphylococcus aureus (GC 4542) (Staphylococcus sp.) | MIC Staphylococcus aureus (GC 4545) (Staphylococcus sp.) | MIC Staphylococcus haemolyticus (GC 4546) (Staphylococcus sp.) | MIC Staphylococcus aureus (GC 4541) (Staphylococcus sp.; strain GC 4541) | MIC Staphylococcus aureus (GC 4542) (Staphylococcus sp.; strain GC 4542) | MIC Staphylococcus aureus (GC 4545) (Staphylococcus sp.; strain GC 4545) | MIC Staphylococcus haemolyticus (GC 4546) (Staphylococcus sp.; strain GC 4546) | MIC Coagulase Negative Staphylococcus (GC 4548) (Staphylococcus sp.; strain GC 4548) | MIC Coagulase Negative Staphylococcus (GC 4549) (Staphylococcus sp.; strain GC 4549)
0.5 µg/mL: MIC Streptococcus pneumoniae (GC 1894) (Streptococcus sp.) | MIC Streptococcus pneumoniae (GC 4565) (Streptococcus sp.) | MIC Streptococcus pneumoniae (GC 1894) (Streptococcus sp.; inoculum 5×10^5 CFU/mL, strain GC 1894) | MIC Streptococcus pneumoniae (GC 4565) (Streptococcus sp.; inoculum 5×10^5 CFU/mL, strain GC 4565)
2 µg/mL: MIC Escherichia coli (GC 4560) (Escherichia coli) | MIC Streptococcus agalactiae (GC 4564) (Streptococcus sp.) | MIC Streptococcus pyogenes (GC 4563) (Streptococcus sp.) | MIC Streptococcus pyogenes (GC 4563) (Streptococcus sp.; inoculum 5×10^5 CFU/mL, strain GC 4563) | MIC Streptococcus agalactiae (GC 4564) (Streptococcus sp.; inoculum 5×10^5 CFU/mL, strain GC 4564) | MIC Coagulase Negative Staphylococcus (GC 6257) (Staphylococcus sp.) | MIC Coagulase Negative Staphylococcus (GC 6257) (Staphylococcus sp.; strain GC 6257)
16 µg/mL: MIC Enterococcus avium (GC 4558) (Enterococcus sp.) | MIC Enterococcus faecalis (ATCC 29212) (Enterococcus sp.) | MIC Enterococcus faecalis (GC 2242) (Enterococcus sp.) | MIC Enterococcus faecalis (GC 2691) (Enterococcus sp.) | MIC Enterococcus faecalis (GC 3059) (Enterococcus sp.) | MIC Enterococcus faecalis (GC 4552) (Enterococcus sp.) | MIC Enterococcus faecalis (GC 4553) (Enterococcus sp.) | MIC Enterococcus faecalis (GC 4554) (Enterococcus sp.) | MIC Enterococcus faecalis (GC 6189) (Enterococcus sp.) | MIC Enterococcus faecium (GC 2243) (Enterococcus sp.) | MIC Enterococcus faecium (GC 4556) (Enterococcus sp.) | MIC Enterococcus faecalis (ATCC 29212) (Enterococcus sp.; strain ATCC 29212) | MIC Enterococcus faecium (GC 2243) (Enterococcus sp.; strain GC 2243) | MIC Enterococcus faecalis (GC 4552) (Enterococcus sp.; strain GC 4552) | MIC Enterococcus faecalis (GC 4553) (Enterococcus sp.; strain GC 4553) | MIC Enterococcus faecalis (GC 4554) (Enterococcus sp.; strain GC 4554) | MIC Enterococcus faecium (GC 4556) (Enterococcus sp.; strain GC 4556) | MIC Enterococcus avium (GC 4558) (Enterococcus sp.; strain GC 4558) | MIC Enterococcus faecalis (GC 6189) (Enterococcus sp.; strain GC 6189) | MIC Enterococcus faecalis (GC 2242) (Enterococcus sp.; inoculum 5×10^5 CFU/mL, strain GC 2242) | MIC Enterococcus faecalis (GC 2691) (Enterococcus sp.; inoculum 5×10^5 CFU/mL, strain GC 2691) | MIC Enterococcus faecalis (GC 3059) (Enterococcus sp.; inoculum 5×10^5 CFU/mL, strain GC 3059) | MIC Coagulase Negative Staphylococcus (GC 4551) (Staphylococcus sp.) | MIC Coagulase Negative Staphylococcus (GC 4551) (Staphylococcus sp.; strain GC 4551)
